Type in all cases: cell-based
One test concerns GLUT. Briefly: glycolysis assay (oligomycin + Cell Titer-Glo ATP readout) in HT1080 cells. The following applies: 10 μM oligomycin, one hour, glycolytically-derived ATP. The source says: The combination of inhibitors of both oxidative phosphorylation and glycolysis synergistically suppress cellular ATP levels. Therefore, our assay utilizes the combination of our glucose uptake inhibitors with oligomycin, a well-characterized inhibitor of ATP synthase. Because oligomycin inhibits ATP derived from oxidative phosphorylation, any remaining ATP production is derived from glycolysis. By reading out cellular ATP levels using the Promega
Titer Glo kit, we can assess the extent of glycolysis inhibition by our glucose uptake inhibitors. Using this experimental set-up in HT1080 cancer cells, we determined the IC50 of glycolysis inhibition for the compounds.
(§1) Determination of glucose uptake/GLUT activity (glycolysis assay): HT1080 cells, DLD1 cells (WT and GLUT1−/−) and human CD4+ T cells were plated in 96-well plates. Cells were exposed to the combination of 10 μM Oligomycin (to block mitochondrial-derived ATP) and the glucose uptake inhibitors disclosed herein for one-hour, after which glycolytically-derived ATP was measured with the Cell Titer-Glo assay kit (Promega). Dose-response curves of the glucose uptake inhibitors disclosed herein were used to determine the IC50 for GLUT activity.
On the technique in general: In ATP-based viability assays light output follows the ATP content of the culture.

In a further test the target is T1, GLUT1 (Homo sapiens, UniProt P11166).
T1 construct: endogenous in cells; host or cells: DLD1 WT cancer cells
T1 sequence (P11166 1-492): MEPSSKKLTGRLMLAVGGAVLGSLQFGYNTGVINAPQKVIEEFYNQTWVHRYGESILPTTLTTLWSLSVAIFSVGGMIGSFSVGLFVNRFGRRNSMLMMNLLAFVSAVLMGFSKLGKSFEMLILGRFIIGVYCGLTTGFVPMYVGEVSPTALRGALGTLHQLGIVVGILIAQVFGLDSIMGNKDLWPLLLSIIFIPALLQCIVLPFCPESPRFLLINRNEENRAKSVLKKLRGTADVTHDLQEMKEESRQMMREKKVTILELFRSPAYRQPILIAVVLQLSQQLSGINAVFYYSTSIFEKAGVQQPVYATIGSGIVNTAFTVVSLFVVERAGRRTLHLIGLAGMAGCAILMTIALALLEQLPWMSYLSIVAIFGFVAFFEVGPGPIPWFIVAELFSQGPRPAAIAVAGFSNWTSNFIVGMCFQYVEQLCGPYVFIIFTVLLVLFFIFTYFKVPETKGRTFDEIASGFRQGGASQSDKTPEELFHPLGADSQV
Briefly: glycolysis assay in DLD1 WT cells (rely on GLUT1). The note with it: DLD1-WT cells; 10 μM oligomycin, one hour. How it is done:
(§2) Cells were treated with GLUT inhibitors plus oligomycin and subsequently ATP levels were determined using Cell Titer Glo. […] FIG. 1B reports the IC50 of glycolysis inhibition for selected compounds.
(§3) Accordingly, we have investigated the use of inhibitors of GLUT transporters against activated pro-inflammatory immune cells, including but not limited to activated human CD4+ T cells. In order to understand what GLUT transporters are required to sustain glycolysis in activated T cells, we first utilized the syngeneic cancer cell lines DLD1 WT and DLD GLUT1−/− that rely on GLUT1 and GLUT3 expression, respectively, for glucose transport. Within this system, we have identified small molecules that simultaneously have the property of inhibiting both GLUT1 and GLUT3 mediated glucose transport. In addition, we have confirmed the GLUT1-selective nature of a published small molecule inhibitor of GLUT1 (Chem Med Chem. 2016 Oct. 19; 11(20):2261-2271).
as §1

The target in a further test is T2, GLUT3 (Homo sapiens, UniProt P11169).
T2 construct: endogenous in cells; host or cells: DLD1 GLUT1−/− (knock-out) cancer cells
T2 sequence (P11169 1-496): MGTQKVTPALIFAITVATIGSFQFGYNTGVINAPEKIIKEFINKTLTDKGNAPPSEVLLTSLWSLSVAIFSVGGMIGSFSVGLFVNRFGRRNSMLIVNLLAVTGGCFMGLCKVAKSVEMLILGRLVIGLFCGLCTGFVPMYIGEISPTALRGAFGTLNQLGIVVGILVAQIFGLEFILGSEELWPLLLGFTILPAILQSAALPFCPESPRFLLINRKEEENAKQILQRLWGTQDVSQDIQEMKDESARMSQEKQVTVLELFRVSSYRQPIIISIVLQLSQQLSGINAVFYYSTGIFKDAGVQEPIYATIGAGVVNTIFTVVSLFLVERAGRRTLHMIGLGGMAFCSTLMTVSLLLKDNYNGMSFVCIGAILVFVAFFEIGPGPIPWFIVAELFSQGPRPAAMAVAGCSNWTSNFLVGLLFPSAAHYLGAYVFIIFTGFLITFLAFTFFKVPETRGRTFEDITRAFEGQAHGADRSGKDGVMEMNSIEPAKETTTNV
Briefly: glycolysis assay in DLD1 GLUT1−/− cells (rely on GLUT3). The following applies: DLD1-KO (GLUT1−/−) cells; 10 μM oligomycin, one hour. How it is done: as §2, §3, §1

In general, IC50 refers to the point on the concentration scale where inhibition reaches its midpoint. As for `COCCOc1ccc2nc(-c3cccc(OCC(=O)NC(C)(C)C)c3)nc(Nc3ccc(-c4cn[nH]c4)cc3)c2c1` [Ex. 39, 2-(3-(4-((4-(1H-Pyrazol-4-yl)phenyl)amino)-6-(2-methoxyethoxy)quinazolin-2-yl)phenoxy)-N-(tert-butyl)acetamide], the values for the IC50 with GLUT, at GLUT1 and at GLUT3 were 34.1 nM, 40.6 nM and 34.2 nM, respectively.

Consider `CC(C)NC(=O)COc1cccc(-c2nc(Nc3ccc(-c4cn[nH]c4)cc3)c3cc(OCCF)ccc3n2)c1` [Ex. 40, 2-(3-(4-((4-(1H-Pyrazol-4-yl)phenyl)amino)-6-(2-fluoroethoxy)quinazolin-2-yl)phenoxy)-N-isopropylacetamide], for which the IC50 with GLUT was 98 nM; on GLUT1, 160 nM; at GLUT3 it was 68.3 nM.

Consider `CC(C)NC(=O)COc1cccc(-c2nc(Nc3ccc(-c4cn[nH]c4)cc3)c3cc(OC(C)C)ccc3n2)c1` [Ex. 41, 2-(3-(4-((4-(1H-pyrazol-4-yl)phenyl)amino)-6-isopropoxyquinazolin-2-yl)phenoxy)-N-isopropylacetamide], for which the results for the half-inhibitory concentration (IC50) in the test with GLUT, at GLUT1 and at GLUT3 were 107 nM, 48.8 nM and 191 nM, respectively.

`CCC(C)NC(=O)COc1cccc(-c2nc(Nc3ccc(-c4cn[nH]c4)cc3)c3cc(OCCOC)ccc3n2)c1` (stereo not drawn) [Ex. 42, 2-(3-(4-((4-(1H-pyrazol-4-yl)phenyl)amino)-6-(2-methoxyethoxy)quinazolin-2-yl)phenoxy)-N-(sec-butyl)acetamide]: the concentration for half-maximal inhibition (IC50) in the test on GLUT is 31.2 nM; on GLUT1 it was 30.7 nM; on GLUT3, 41.6 nM.

Regarding `CCC(C)NC(=O)COc1cccc(-c2nc(Nc3ccc(-c4cn[nH]c4)cc3)c3cc(OCCF)ccc3n2)c1` (stereo not drawn) [Ex. 43, 2-(3-(4-((4-(1H-pyrazol-4-yl)phenyl)amino)-6-(2-fluoroethoxy)quinazolin-2-yl)phenoxy)-N-(sec-butyl)acetamide], the concentration for half-maximal inhibition (IC50) in the test on GLUT came to 46 nM; on GLUT1 it was 34.4 nM; at GLUT3 it was 58.9 nM.

As for `CCC(C)NC(=O)COc1cccc(-c2nc(Nc3ccc(-c4cn[nH]c4)cc3)c3cc(F)ccc3n2)c1` (stereo not drawn) [Ex. 44, 2-(3-(4-((4-(1H-pyrazol-4-yl)phenyl)amino)-6-fluoroquinazolin-2-yl)phenoxy)-N-(sec-butyl)acetamide], the IC50 in the test on GLUT turned out to be 123 nM; on GLUT1 it was 91.2 nM; on GLUT3, 159 nM.

Regarding `CC[C@H](C)NC(=O)COc1cccc(-c2nc(Nc3ccc(-c4cn[nH]c4)cc3)c3cc(OCCOC)ccc3n2)c1` [Ex. 45, (S)-2-(3-(4-((4-(1H-pyrazol-4-yl)phenyl)amino)-6-(2-methoxyethoxy)quinazolin-2-yl)phenoxy)-N-(sec-butyl)acetamide], the IC50 with GLUT was 25.1 nM; on GLUT1, 25.2 nM; at GLUT3, 40.6 nM.

`CC[C@H](C)NC(=O)COc1cccc(-c2nc(Nc3ccc(-c4cn[nH]c4)cc3)c3cc(OCCF)ccc3n2)c1` [Ex. 46, (S)-2-(3-(4-((4-(1H-pyrazol-4-yl)phenyl)amino)-6-(2-fluoroethoxy)quinazolin-2-yl)phenoxy)-N-(sec-butyl)acetamide]: the figures for the IC50 in the test on GLUT, at GLUT1 and at GLUT3 were 37.1 nM, 34.8 nM and 87 nM, respectively.

Turning to `CC[C@H](C)NC(=O)COc1cccc(-c2nc(Nc3ccc(-c4cn[nH]c4)cc3)c3cc(F)ccc3n2)c1` [Ex. 47, (S)-2-(3-(4-((4-(1H-pyrazol-4-yl)phenyl)amino)-6-fluoroquinazolin-2-yl)phenoxy)-N-(sec-butyl)acetamide], the IC50 was found to be 111 nM in the test with GLUT, 94.9 nM at GLUT1 and 133 nM at GLUT3.

As for `CC[C@H](C)NC(=O)COc1cccc(-c2nc(Nc3ccc(-c4cn[nH]c4)cc3)c3cc(OC)ccc3n2)c1` [Ex. 48, (S)-2-(3-(4-((4-(1H-pyrazol-4-yl)phenyl)amino)-6-methoxyquinazolin-2-yl)phenoxy)-N-(sec-butyl)acetamide], the IC50 with GLUT came out at 81.5 nM; on GLUT1, 71.6 nM; on GLUT3 it was 110 nM.

For `CC[C@@H](C)NC(=O)COc1cccc(-c2nc(Nc3ccc(-c4cn[nH]c4)cc3)c3cc(OCCOC)ccc3n2)c1` [Ex. 49, (R)-2-(3-(4-((4-(1H-pyrazol-4-yl)phenyl)amino)-6-(2-methoxyethoxy)quinazolin-2-yl)phenoxy)-N-(sec-butyl)acetamide], the IC50 in the test with GLUT came out at 30.7 nM; at GLUT1 it was 30.3 nM; at GLUT3, 50.9 nM.

In the case of `CC[C@@H](C)NC(=O)COc1cccc(-c2nc(Nc3ccc(-c4cn[nH]c4)cc3)c3cc(OCCF)ccc3n2)c1` [Ex. 50, (R)-2-(3-(4-((4-(1H-pyrazol-4-yl)phenyl)amino)-6-(2-fluoroethoxy)quinazolin-2-yl)phenoxy)-N-(sec-butyl)acetamide], the half-inhibitory concentration (IC50) in the test on GLUT amounted to 44.7 nM; at GLUT1, 38.5 nM; at GLUT3 it was 72.1 nM.

On to `CC[C@@H](C)NC(=O)COc1cccc(-c2nc(Nc3ccc(-c4cn[nH]c4)cc3)c3cc(F)ccc3n2)c1` [Ex. 51, (R)-2-(3-(4-((4-(1H-pyrazol-4-yl)phenyl)amino)-6-fluoroquinazolin-2-yl)phenoxy)-N-(sec-butyl)acetamide], for which the concentration for half-maximal inhibition (IC50) in the test on GLUT turned out to be 113 nM; at GLUT1 it was 106 nM; at GLUT3, 125 nM.

On to `CC[C@@H](C)NC(=O)COc1cccc(-c2nc(Nc3ccc(-c4cn[nH]c4)cc3)c3cc(OC)ccc3n2)c1` [Ex. 52, (R)-2-(3-(4-((4-(1H-pyrazol-4-yl)phenyl)amino)-6-methoxyquinazolin-2-yl)phenoxy)-N-(sec-butyl)acetamide], for which the half-inhibitory concentration (IC50) in the test on GLUT worked out at 92.1 nM; on GLUT1, 81.6 nM; on GLUT3 it was 118 nM.

Consider `CCC(C)NC(=O)COc1cccc(-c2nc(Nc3ccc(-c4cn[nH]c4)cc3)c3ccc(F)cc3n2)c1` (stereo not drawn) [Ex. 53, 2-(3-(4-((4-(1H-pyrazol-4-yl)phenyl)amino)-7-fluoroquinazolin-2-yl)phenoxy)-N-(sec-butyl)acetamide], for which the values for the 50% inhibitory concentration (IC50) with GLUT, on GLUT1 and on GLUT3 were 283 nM, 222 nM and 271 nM, respectively.

`CC[C@H](C)NC(=O)COc1cccc(-c2nc(Nc3ccc(-c4cn[nH]c4)cc3)c3ccc(F)cc3n2)c1` [Ex. 54, (S)-2-(3-(4-((4-(1H-pyrazol-4-yl)phenyl)amino)-7-fluoroquinazolin-2-yl)phenoxy)-N-(sec-butyl)acetamide]: the values for the IC50 with GLUT, at GLUT1 and at GLUT3 were 196 nM, 146 nM and 290 nM, respectively.

For `CC[C@@H](C)NC(=O)COc1cccc(-c2nc(Nc3ccc(-c4cn[nH]c4)cc3)c3ccc(F)cc3n2)c1` [Ex. 55, (R)-2-(3-(4-((4-(1H-pyrazol-4-yl)phenyl)amino)-7-fluoroquinazolin-2-yl)phenoxy)-N-(sec-butyl)acetamide], the IC50 in the test with GLUT came out at 190 nM; on GLUT1, 192 nM; at GLUT3 it was 238 nM.

Source of the values: patent US11071735B2, “Treatment of inflammatory conditions and autoimmune diseases with glucose uptake inhibitors” (Kadmon Corporation, LLC, priority 2017, dated 2021).
